Experimental data as given in US20180099931A1 (AbbVie S.à.r.l., priority 2016, published 2018).
Read-outs that look alike come from different tables or passages of the source.

Target: T1, F508delCFTR (Homo sapiens, UniProt P13569, DEL508-508)
T1 construct: expressed in transfected cells; host or cells: CFBE41o- human lung-derived epithelial cells (CFBE4lo-F508delCFTR-HRP), doxycycline-inducible
Assay: Cell Surface Expression-Horse Radish Peroxidase (CSE-HRP) Assay;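 on Maximum % activity (with co-corrector): co-corrector and positive control are both the same reference corrector at 2 µM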;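 on Maximum % activity (without co-corrector): percent of the 2 µM on-plate positive control corrector response above DMSO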
Format: cell-based
Settings: for Maximum % activity (with co-corrector) / Emax: maximum at any tested concentration, normalized to on-plate positive control; for Emax: read-out: Maximum % activity (without co-corrector)

[1] = test compound without co-corrector, read-out: EC50 (without co-corrector)
[2] = with co-corrector (2 μM of 3-[(2R,4R)-4-({[1-(2,2-difluoro-1,3-benzodioxol-5-yl)cyclopropyl]carbonyl}amino)-7-methoxy-3,4-dihydro-2H-chromen-2-yl]benzoic acid), read-out: EC50 (with co-corrector)
[3] = test compound without co-corrector
[4] = with co-corrector (2 μM of 3-[(2R,4R)-4-({[1-(2,2-difluoro-1,3-benzodioxol-5-yl)cyclopropyl]carbonyl}amino)-7-methoxy-3,4-dihydro-2H-chromen-2-yl]benzoic acid)
[5] = CSE-HRP, test compound without co-corrector, read-out: EC50 (without co-corrector)
[6] = CSE-HRP, with co-corrector (2 μM of 3-[(2R,4R)-4-({[1-(2,2-difluoro-1,3-benzodioxol-5-yl)cyclopropyl]carbonyl}amino)-7-methoxy-3,4-dihydro-2H-chromen-2-yl]benzoic acid), read-out: EC50 (with co-corrector)
[7] = CSE-HRP, with co-corrector (2 μM)

T1 sequence (P13569 with tags, fused parts or gaps DEL508-508): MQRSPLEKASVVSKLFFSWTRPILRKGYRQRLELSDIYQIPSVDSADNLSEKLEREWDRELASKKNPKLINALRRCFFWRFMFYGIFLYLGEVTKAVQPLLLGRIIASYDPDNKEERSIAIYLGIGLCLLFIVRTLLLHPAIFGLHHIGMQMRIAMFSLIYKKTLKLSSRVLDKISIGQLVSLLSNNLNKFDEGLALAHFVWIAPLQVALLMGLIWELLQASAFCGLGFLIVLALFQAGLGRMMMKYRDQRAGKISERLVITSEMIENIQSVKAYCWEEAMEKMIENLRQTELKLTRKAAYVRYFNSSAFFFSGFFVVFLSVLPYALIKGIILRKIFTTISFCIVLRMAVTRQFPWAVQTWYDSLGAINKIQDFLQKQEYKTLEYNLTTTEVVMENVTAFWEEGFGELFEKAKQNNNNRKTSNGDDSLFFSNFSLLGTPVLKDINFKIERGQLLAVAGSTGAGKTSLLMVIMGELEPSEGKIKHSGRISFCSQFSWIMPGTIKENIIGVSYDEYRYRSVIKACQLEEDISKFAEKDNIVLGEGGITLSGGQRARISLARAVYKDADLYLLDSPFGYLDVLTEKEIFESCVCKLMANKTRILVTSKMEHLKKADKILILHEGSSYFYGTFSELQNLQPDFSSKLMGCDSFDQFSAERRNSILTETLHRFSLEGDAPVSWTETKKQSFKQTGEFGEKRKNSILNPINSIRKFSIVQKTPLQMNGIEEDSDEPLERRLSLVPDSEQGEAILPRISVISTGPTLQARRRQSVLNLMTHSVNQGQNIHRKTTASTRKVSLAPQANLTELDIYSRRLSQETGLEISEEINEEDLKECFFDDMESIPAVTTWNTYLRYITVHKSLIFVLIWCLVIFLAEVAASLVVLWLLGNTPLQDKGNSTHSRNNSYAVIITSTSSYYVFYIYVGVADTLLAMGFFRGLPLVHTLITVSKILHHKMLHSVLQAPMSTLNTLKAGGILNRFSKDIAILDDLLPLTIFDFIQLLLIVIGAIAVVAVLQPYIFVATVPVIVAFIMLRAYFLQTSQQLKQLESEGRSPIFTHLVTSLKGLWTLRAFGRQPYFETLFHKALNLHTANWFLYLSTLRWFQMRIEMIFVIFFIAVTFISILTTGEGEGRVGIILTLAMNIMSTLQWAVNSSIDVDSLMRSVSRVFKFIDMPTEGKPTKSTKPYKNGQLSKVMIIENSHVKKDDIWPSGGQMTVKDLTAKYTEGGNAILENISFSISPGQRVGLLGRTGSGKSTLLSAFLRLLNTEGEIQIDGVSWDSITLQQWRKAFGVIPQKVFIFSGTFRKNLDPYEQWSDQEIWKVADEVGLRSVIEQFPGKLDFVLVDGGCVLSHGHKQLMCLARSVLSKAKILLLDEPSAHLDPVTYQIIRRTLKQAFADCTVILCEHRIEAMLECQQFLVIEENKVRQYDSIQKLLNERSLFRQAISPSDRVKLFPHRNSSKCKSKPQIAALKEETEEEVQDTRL

Row | EC50 [1] [nM] | EC50 [2] [nM] | Maximum % activity (with co-corrector) (with co-corrector (2 μM)) | Emax (without co-corrector) [%] | Emax [3] [%] | Maximum % activity (with co-corrector) [4] | EC50 [5] [nM] | EC50 [6] [nM] | Maximum % activity (with co-corrector) [7] | Emax (CSE-HRP, without co-corrector) [%] | SMILES
1 | 1000 to 10000 | < 1000 | +++ (≥350) | 100 to 200 |  |  |  |  |  |  | COc1ccc(C(C)(C)C)cc1CN[C@H]1[C@H](C(C)(C)C)[C@@H](C(=O)O)N(C(=O)c2ccc(OC3CCCCC3)cc2)[C@H]1c1cccnc1N(C)C [Example I-200]
2 | 1000 to 10000 | 1000 to 10000 | +++ (≥350) | > 200 |  |  |  |  |  |  | COc1cc(C(F)(F)F)ccc1CN[C@@H]1[C@@H](C(C)(C)C)[C@H](C(=O)O)N(C(=O)OC(C)C)[C@@H]1c1cccnc1N(C)C (racemic) [Example I-28]
3 | 1000 to 10000 | 1000 to 10000 | +++ (≥350) | > 200 |  |  |  |  |  |  | COc1ccc(C23CC(C2)C3)cc1CN[C@H]1[C@H](C(C)(C)C)[C@@H](C(=O)O)N(C(=O)OC(C)C)[C@H]1c1cccnc1N(C)C [Example 64, (2S,3S,4S,5S)-4-({[5-(bicyclo[1.1.1]pentan-1-yl)-2-methoxyphenyl]methyl}amino)-3-tert-butyl-5-[2-(dimethylamino)pyridin-3-yl]-1-{[(propan-2-yl)oxy]carbonyl}pyrrolidine-2-carboxylic acid]
4 | 1000 to 10000 | < 1000 |  |  | 100 to 200 | +++ (≥350) |  |  |  |  | COc1ccc(C(C)(C)C)cc1CN[C@H]1[C@H](C(C)(C)C)[C@@H](C(=O)O)N(C(=O)C2CCC(C(F)(F)F)CC2)[C@H]1c1ccccc1 (stereo partly shown) [II-374]
5 | < 1000 | < 1000 | +++ (≥350) | < 100 |  |  |  |  |  |  | COc1ncc(C(F)(F)F)cc1N[C@H]1[C@H](C(C)(C)C)[C@@H](C(=O)O)N(C(=O)C2CCCCC2)[C@H]1c1ccccc1 [Example 114, (2S,3S,4S,5S)-3-tert-butyl-1-(cyclohexanecarbonyl)-4-{[2-methoxy-5-(trifluoromethyl)pyridin-3-yl]amino}-5-phenylpyrrolidine-2-carboxylic acid]
6 | 1000 to 10000 | < 1000 |  |  | 100 to 200 | +++ (≥350) |  |  |  |  | COc1cc(C(F)(F)F)ccc1CN[C@H]1[C@H](C(C)(C)C)[C@@H](C(=O)O)N(C(=O)C2CCCC(F)(F)C2)[C@H]1c1ccccc1 (stereo partly shown) [II-508]
7 | 1000 to 10000 | 1000 to 10000 | +++ (≥350) | > 200 |  |  |  |  |  |  | COc1ncc(C2CCC2)cc1CN[C@H]1[C@H](C(C)(C)C)[C@@H](C(=O)O)N(C(=O)OC(C)C)[C@H]1c1cccnc1OC(C)C [Example 87, (2S,3S,4S,5S)-3-tert-butyl-4-{[(5-cyclobutyl-2-methoxypyridin-3-yl)methyl]amino}-1-{[(propan-2-yl)oxy]carbonyl}-5-{2-[(propan-2-yl)oxy]pyridin-3-yl}pyrrolidine-2-carboxylic acid]
8 |  |  |  |  |  |  | 1000 to 10000 | < 1000 | +++ (≥350) | 100 to 200 | COc1cc(C(C)(C)C)ccc1CN[C@H]1[C@H](C(C)(C)C)[C@@H](C(=O)O)N(C(=O)C2CCCCC2)[C@H]1c1ccccc1OC [II-141]
9 | 1000 to 10000 | 1000 to 10000 | ++ (≥150 and <350) |  | < 100 |  |  |  |  |  | COc1ccc(C(C)(C)C)cc1CN[C@H]1[C@H](C(C)(C)C)[C@@H](C(=O)O)N(C(=O)c2cn(C)c3ccccc23)[C@H]1c1ccccc1 [III-177]
10 | 1000 to 10000 | 1000 to 10000 | +++ (≥350) | > 200 |  |  |  |  |  |  | COc1ncc(C(C)(C)C)cc1CN[C@H]1[C@H](C(C)(C)C)[C@@H](C(=O)O)N(C(=O)C2CCCCC2)[C@H]1c1cccnc1OC [Example I-135]
11 |  |  |  |  |  |  | 1000 to 10000 | 1000 to 10000 | +++ (≥350) | > 200 | COc1ccc(C(C)C)cc1CN[C@@H]1[C@@H](C(C)(C)C)[C@H](C(=O)O)N(C(=O)C2CCCCC2)[C@@H]1c1ccccc1 (racemic) [II-73]
12 | 1000 to 10000 | 1000 to 10000 | +++ (≥350) |  | > 200 |  |  |  |  |  | COc1ccc(C2(C)CCC2)cc1CN[C@H]1[C@H](C(C)(C)C)[C@@H](C(=O)O)N(C(=O)[C@@H]2CCCCO2)[C@H]1c1cccnc1OC [III-233]
13 | > 10000 | < 1000 |  |  | < 100 | ++ (≥150 and <350) |  |  |  |  | COc1ccc(C(C)(C)C)cc1CN[C@H]1[C@H](C(C)(C)C)[C@@H](C(=O)O)N(C(=O)C2COc3ccccc3O2)[C@H]1c1cccnc1N(C)C (single isomer, unassigned) [II-471]
14 | > 10000 | > 10000 | + (<150) |  | < 100 |  |  |  |  |  | COc1ccc(C(C)(C)C)cc1CN[C@H]1[C@H](C(C)(C)C)[C@@H](C(=O)O)N(C(=O)c2cn(C)cc(C)c2=O)[C@H]1c1ccccc1 [III-176]
15 | 1000 to 10000 | 1000 to 10000 |  |  | < 100 | +++ (≥350) |  |  |  |  | CC(C)(C)[C@@H]1[C@@H](NCc2ccccc2OC(F)F)[C@@H](c2ccccc2)N(C(=O)C2CCCCC2)[C@H]1C(=O)O (racemic) [III-7]
16 | > 10000 | 1000 to 10000 | + (<150) | < 100 |  |  |  |  |  |  | COc1c(CN[C@@H]2[C@@H](C(C)(C)C)[C@H](C(=O)O)N(C(=O)C3CCCCC3)[C@@H]2c2ccccc2)c(C)nn1C (racemic) [Example I-4]
17 |  |  |  |  |  |  | 1000 to 10000 | 1000 to 10000 | +++ (≥350) | 100 to 200 | COc1ccc(C(C)(C)C)cc1CN[C@H]1[C@H](C(C)(C)C)[C@@H](C(=O)O)N(S(=O)(=O)c2ccn(C)n2)[C@H]1c1ccccc1 [II-154]
18 | < 1000 |  |  |  | < 100 | ++ (≥150 and <350) |  |  |  |  | COc1nc(C(C)(C)C)ccc1CN[C@H]1[C@H](C(C)(C)C)[C@@H](C(=O)O)N(C(=O)C2Cc3ccccc3O2)[C@H]1c1ccccc1 (single isomer, unassigned) [II-430]
19 | > 10000 | > 10000 | + (<150) | < 100 |  |  |  |  |  |  | CCn1ccc(=O)c(C(=O)N2[C@H](C(=O)O)[C@@H](C(C)(C)C)[C@H](NCc3cc(C(C)(C)C)ccc3OC)[C@@H]2c2ccccc2)c1 [Example I-101]
20 | < 1000 | < 1000 | +++ (≥350) | > 200 |  |  |  |  |  |  | COc1ccc(C(C)(C)C)cc1CN[C@H]1[C@H](C(C)(C)C)[C@@H](C(=O)O)N(C(=O)C(OC)c2ccc(F)c(F)c2)[C@H]1c1ccccc1 (relative stereo) [Example I-159]
21 | 1000 to 10000 | 1000 to 10000 | +++ (≥350) | > 200 |  |  |  |  |  |  | COc1ccc(C(C)(C)C)cc1CN[C@H]1[C@H](C(C)(C)C)[C@@H](C(=O)O)N(C(=O)C2CCCN(C)C2=O)[C@H]1c1ccccc1 (single isomer, unassigned) [Example I-191]
22 |  |  |  |  |  |  | 1000 to 10000 | 1000 to 10000 | +++ (≥350) | > 200 | COc1cc(C(F)(F)F)ccc1CN[C@H]1[C@H](C(C)(C)C)[C@@H](C(=O)O)N(C(=O)[C@@H]2CCCCO2)[C@H]1c1cccc2c1OCC2 [Example I-300]
23 |  |  |  |  |  |  | 1000 to 10000 | 1000 to 10000 | ++ (≥150 and <350) | < 100 | COc1ncc(C2CCC2)cc1CN[C@H]1[C@H](C(C)(C)C)[C@@H](C(=O)O)N(C(=O)[C@H]2CCC[C@@H](C(F)(F)F)C2)[C@H]1c1ccccc1 (relative stereo) [Example I-260]
24 | 1000 to 10000 | 1000 to 10000 |  |  | 100 to 200 | +++ (≥350) |  |  |  |  | COc1ncc(C2CCC2)cc1CN[C@H]1[C@H](C(C)(C)C)[C@@H](C(=O)O)N(C(=O)C2COc3ccccc3O2)[C@H]1c1ccccc1 (stereo partly shown) [II-474]
25 | 1000 to 10000 | 1000 to 10000 |  |  | < 100 | ++ (≥150 and <350) |  |  |  |  | COc1ncc(CN[C@@H]2[C@@H](C(C)(C)C)[C@H](C(=O)O)N(C(=O)C3CCCCC3)[C@@H]2c2ccccc2)c(OC)n1 (racemic) [III-29]
26 |  |  |  |  |  |  | 1000 to 10000 | < 1000 | +++ (≥350) | 100 to 200 | COc1ncc(C(F)(F)F)cc1CN[C@H]1[C@H](C(C)(C)C)[C@@H](C(=O)O)N(C(=O)[C@@H]2CCCO2)[C@H]1c1ccccc1Br [Example I-292]
27 | 1000 to 10000 | 1000 to 10000 |  |  | 100 to 200 | +++ (≥350) |  |  |  |  | COc1ccc(C(C)(C)C)cc1CN[C@H]1[C@H](C(C)(C)C)[C@@H](C(=O)O)N(C(=O)C2CC2c2ccncc2)[C@H]1c1ccccc1 (stereo partly shown) [II-331]
28 | 1000 to 10000 | 1000 to 10000 |  |  | < 100 | +++ (≥350) |  |  |  |  | COc1ccc2c(c1)[C@@](C)(C(=O)N1[C@H](C(=O)O)[C@@H](C(C)(C)C)[C@H](NCc3cc(C(C)(C)C)ccc3OC)[C@@H]1c1cccnc1OC)CC2 [II-569]
29 |  |  |  |  |  |  | 1000 to 10000 | 1000 to 10000 | +++ (≥350) | 100 to 200 | COc1ccc(C(C)(C)C)cc1CN[C@H]1[C@H](C(C)(C)C)[C@@H](C(=O)O)N(C(=O)CC2(C)CCC(F)(F)C2)[C@H]1c1ccccc1 (stereo partly shown) [II-220]
